Results: ChEMBL document CHEMBL1123199, “Synthesis and structure-activity relationships of naftifine-related allylamine antimycotics” (1986)
Converted amounts (≈) assume the structure as drawn.

Key:
Aspergillus fumigatus = assay: Antifungal activity measured against Aspergillus fumigatus; assay type: functional
Candida parapsilosis = assay: Antifungal activity against Candida parapsilosis.; assay type: functional; conditions: Lodderomyces parapsilosis
Epidermophyton floccosum = assay: Antifungal activity against Epidermophyton floccosum.; assay type: functional
Cavia porcellus [1] = assay: In vivo antifungal activity by topical treatment of guinea pig dermatophytosis caused by Trichophyton mentagrophytes at a dose of 0.1%; assay type: functional
Cavia porcellus [2] = assay: In vivo antifungal activity by topical treatment of guinea pig dermatophytosis caused by Trichophyton mentagrophytes at a dose of 0.5%; assay type: functional
Cavia porcellus [3] = assay: In vivo antifungal activity by topical treatment of guinea pig dermatophytosis caused by Trichophyton mentagrophytes at a dose of 2%; assay type: functional
Microsporum canis = assay: Antifungal activity against Microsporum canis; assay type: functional
Sporothrix schenckii = assay: Antifungal activity measured against Sporothrix schenck ii.; assay type: functional
Trichophyton benhamiae = assay: Antifungal activity measured against Trichophyton mentagrophytes; assay type: functional, Arthroderma benhamiae

MIC (Aspergillus fumigatus) [µg/mL]	MIC (Candida parapsilosis) [µg/mL]	MIC (Epidermophyton floccosum) [µg/mL]	MIC (Microsporum canis) [µg/mL]	MIC (Sporothrix schenckii) [µg/mL]	MIC (Trichophyton benhamiae) [µg/mL]	Structure (SMILES)	Activity (Cavia porcellus [1]) [%]	Activity (Cavia porcellus [2]) [%]	Activity (Cavia porcellus [3]) [%]
> 100	> 100	3.1 (≈ 10.9 µM)	6.25 (≈ 22.1 µM)	12.5 (≈ 44.1 µM)	< 1.6	CCOC(=O)/C=C/CN(C)Cc1cccc2ccccc12	0	0	16
> 100	> 100	25 (≈ 82.9 µM)	12.5 (≈ 41.5 µM)	100 (≈ 332 µM)	12.5 (≈ 41.5 µM)	CN(Cc1cccc2ccccc12)CC1CC1c1ccccc1 (configuration not stated)			
25 (≈ 85.2 µM)	3.1 (≈ 10.6 µM)	0.2 (≈ 0.682 µM)	0.2 (≈ 0.682 µM)	1.6 (≈ 5.45 µM)	0.1 (≈ 0.341 µM)	CN(C/C=C/c1ccccc1)Cc1csc2ccccc12	0	54	97
> 100	> 100	25 (≈ 86.1 µM)	50 (≈ 172 µM)	50 (≈ 172 µM)	25 (≈ 86.1 µM)	CN(C/C=C/c1cccn1C)Cc1cccc2ccccc12			
> 100	> 100	> 100	> 100	> 100	> 100	C(=C\c1ccccc1)/CN(Cc1cccc2ccccc12)C1CCCCC1			
> 100	> 100	12.5 (≈ 43.3 µM)	12.5 (≈ 43.3 µM)	100 (≈ 347 µM)	< 1.6	CN(C/C=C/c1ccccn1)Cc1cccc2ccccc12	0	0	7
> 100	> 100	25 (≈ 85.8 µM)	25 (≈ 85.8 µM)	100 (≈ 343 µM)	25 (≈ 85.8 µM)	CN(C/C=C/C1CC=CCC1)Cc1cccc2ccccc12 (configuration not stated)			
> 100	> 100	12.5 (≈ 41.5 µM)	25 (≈ 82.9 µM)	25 (≈ 82.9 µM)	< 1.6	CC(/C=C/c1ccccc1)N(C)Cc1cccc2ccccc12 (configuration not stated)			
12.5 (≈ 42.9 µM)	0.8 (≈ 2.75 µM)	0.1 (≈ 0.343 µM)	0.1 (≈ 0.343 µM)	0.8 (≈ 2.75 µM)	0.05 (≈ 0.172 µM)	CN(C/C=C/C1=CCCCC1)Cc1cccc2ccccc12	41	97	100
> 100	> 100	100 (≈ 423 µM)	100 (≈ 423 µM)	> 100	100 (≈ 423 µM)	CN(C/C=C/C#N)Cc1cccc2ccccc12			
100 (≈ 296 µM)	100 (≈ 296 µM)	100 (≈ 296 µM)	100 (≈ 296 µM)	100 (≈ 296 µM)	100 (≈ 296 µM)	CN(C/C=C/c1ccccc1)Cc1cc2ccccc2c2ccccc12			
> 100		> 100	> 100	> 100	> 100	C=CCN(C)Cc1cccc2ccccc12			
> 100	> 100	100 (≈ 369 µM)	> 100	100 (≈ 369 µM)	100 (≈ 369 µM)	C(=C\c1ccccc1)/C=N/Cc1cccc2ccccc12			
> 100	> 100	> 100	> 100	> 100	> 100	O=S(=O)(C/C=C/c1ccccc1)Cc1cccc2ccccc12			
> 100	100 (≈ 317 µM)	< 1.6	3.1 (≈ 9.83 µM)	50 (≈ 158 µM)	< 1.6	CC(C)N(C/C=C/c1ccccc1)Cc1cccc2ccccc12			
> 100	> 100	6.2 (≈ 22.4 µM)	6.2 (≈ 22.4 µM)	100 (≈ 361 µM)	< 1.6	CN(C/C=C/c1ccco1)Cc1cccc2ccccc12			
> 100	> 100	12.5 (≈ 43.2 µM)	6.2 (≈ 21.4 µM)	> 100	3.1 (≈ 10.7 µM)	CN(CC(=O)c1ccccc1)Cc1cccc2ccccc12			
> 100	25 (≈ 86.1 µM)	≤ 1.6	≤ 1.6	≤ 1.6	≤ 1.6	CN(C/C=C/c1ccccc1)Cc1cn(C)c2ccccc12	0	0	88
> 100	> 100	> 100	> 100	> 100	> 100	CN(C/C=C/c1ccccc1)C(c1ccccc1)c1ccccc1			
100 (≈ 332 µM)	12.5 (≈ 41.5 µM)	< 1.6	< 1.6	12.5 (≈ 41.5 µM)	< 1.6	CCN(C/C=C/c1ccccc1)Cc1cccc2ccccc12	19	25	81
> 100	> 100	> 100	> 100	> 100	> 100	C/C=C/CN(C)Cc1cccc2ccccc12			
> 100	> 100	> 100	> 100	50 (≈ 143 µM)	> 100	C(=C\c1ccccc1)/CN(Cc1cccc2ccccc12)c1ccccc1			
> 100	> 100	> 100	> 100	> 100	> 100	C(=C\c1ccccc1)/CN(C/C=C/c1ccccc1)Cc1cccc2ccccc12			

MIC (Aspergillus fumigatus) [µg/mL]	MIC (Candida parapsilosis) [µg/mL]	MIC (Epidermophyton floccosum) [µg/mL]	MIC (Microsporum canis) [µg/mL]	MIC (Sporothrix schenckii) [µg/mL]	MIC (Trichophyton benhamiae) [µg/mL]	Structure (SMILES)	Activity (Cavia porcellus [1]) [%]	Activity (Cavia porcellus [2]) [%]	Activity (Cavia porcellus [3]) [%]
12.5 (≈ 42.6 µM)	1.6 (≈ 5.45 µM)	0.1 (≈ 0.341 µM)	0.1 (≈ 0.341 µM)	1.6 (≈ 5.45 µM)	0.1 (≈ 0.341 µM)	CN(C/C=C/c1ccccc1)Cc1cccc2sccc12		75	100
> 100	> 100	100 (≈ 296 µM)	100 (≈ 296 µM)	100 (≈ 296 µM)	1.6 (≈ 4.74 µM)	CN(C/C=C/c1cccc2ccccc12)Cc1cccc2ccccc12			
> 100	> 100	100 (≈ 366 µM)	100 (≈ 366 µM)	100 (≈ 366 µM)	12.5 (≈ 45.7 µM)	C(=C\c1ccccc1)/CNCc1cccc2ccccc12 [N-DEALKYL NAFTIFINE]			
> 100	> 100	3.1 (≈ 9.76 µM)	1.6 (≈ 5.04 µM)	6.25 (≈ 19.7 µM)	1.6 (≈ 5.04 µM)	CN(C/C=C/c1ccccc1)Cc1c2c(cc3c1CCC3)CCC2			
100 (≈ 319 µM)	> 100	3.1 (≈ 9.89 µM)	< 1.6	6.25 (≈ 19.9 µM)	< 1.6	C=CCN(C/C=C/c1ccccc1)Cc1cccc2ccccc12			
> 100	> 100	6.2 (≈ 20.4 µM)	6.2 (≈ 20.4 µM)	50 (≈ 165 µM)	6.2 (≈ 20.4 µM)	CN(CCC(=O)c1ccccc1)Cc1cccc2ccccc12			
> 100	> 100	50 (≈ 158 µM)	50 (≈ 158 µM)	> 100	6.2 (≈ 19.5 µM)	COc1ccc(/C=C/CN(C)Cc2cccc3ccccc23)cc1			
> 100	> 100	> 100	> 100	> 100	> 100	CN(CCC(O)c1ccccc1)Cc1cccc2ccccc12 (configuration not stated)			
> 100	> 100	> 100	> 100	> 100	> 100	CN(Cc1cccc2ccccc12)C(=O)/C=C/c1ccccc1			
> 100	25 (≈ 86.4 µM)	≤ 1.6	≤ 1.6	12.5 (≈ 43.2 µM)	≤ 1.6	CN(C/C=C/c1ccccc1)CC1=CCCc2ccccc21			
> 100	> 100	> 100	> 100	> 100	25	C[N+](C)(C/C=C/c1ccccc1)Cc1cccc2ccccc12.[I-]			
50 (≈ 172 µM)	6.2 (≈ 21.3 µM)	0.4 (≈ 1.37 µM)	0.4 (≈ 1.37 µM)	6.2 (≈ 21.3 µM)	0.2 (≈ 0.686 µM)	CN(C/C=C/c1ccccc1)CC1=CCOc2ccccc21			82
> 100	> 100	> 100	> 100	> 100	> 100	CC(=O)N(C/C=C/c1ccccc1)Cc1cccc2ccccc12			
> 100	25 (≈ 90.1 µM)	12.5 (≈ 45.1 µM)	1.6 (≈ 5.77 µM)	100 (≈ 361 µM)	1.6 (≈ 5.77 µM)	CN(C/C=C/c1ccccc1)Cc1coc2ccccc12			
> 100	> 100	> 100	> 100	> 100	> 100	CN(C/C=C/CO)Cc1cccc2ccccc12			
> 100	> 100	> 100	> 100	> 100	25 (≈ 86.1 µM)	C(=C\c1ccccc1)/CSCc1cccc2ccccc12			
> 100	> 100	100 (≈ 332 µM)	100 (≈ 332 µM)	100 (≈ 332 µM)	12.5 (≈ 41.5 µM)	C/C(=C\c1ccccc1)CN(C)Cc1cccc2ccccc12			
> 100	> 100	100 (≈ 332 µM)	100 (≈ 332 µM)	100 (≈ 332 µM)	50 (≈ 166 µM)	C/C(=C\CN(C)Cc1cccc2ccccc12)c1ccccc1			
> 100	> 100	50 (≈ 158 µM)	100 (≈ 315 µM)	> 100	50 (≈ 158 µM)	COc1ccc2ccccc2c1CN(C)C/C=C/c1ccccc1			
> 100	> 100	> 100	> 100	> 100	> 100	C(=C\c1ccccc1)/CN(Cc1ccccc1)Cc1cccc2ccccc12			
> 100	> 100	25 (≈ 86.7 µM)	25 (≈ 86.7 µM)	100 (≈ 347 µM)	< 1.6	CN(C/C=C/c1ccncc1)Cc1cccc2ccccc12			
> 100	> 100	> 100	> 100	> 100	> 100	[O-][S+](C/C=C/c1ccccc1)Cc1cccc2ccccc12 (configuration not stated)			
> 100	> 100	12.5 (≈ 42.6 µM)	12.5 (≈ 42.6 µM)	> 100	1.6 (≈ 5.45 µM)	CN(C/C=C/C1CCCCC1)Cc1cccc2ccccc12			

Structure (SMILES)	MIC (Aspergillus fumigatus) [µg/mL]	MIC (Candida parapsilosis) [µg/mL]	MIC (Epidermophyton floccosum) [µg/mL]	MIC (Microsporum canis) [µg/mL]	MIC (Sporothrix schenckii) [µg/mL]	MIC (Trichophyton benhamiae) [µg/mL]	Activity (Cavia porcellus [1]) [%]	Activity (Cavia porcellus [2]) [%]	Activity (Cavia porcellus [3]) [%]
CN(CCc1ccccc1)Cc1cccc2ccccc12	> 100	> 100	100 (≈ 363 µM)	100 (≈ 363 µM)	> 100	12.5 (≈ 45.4 µM)			
